Reference: article PMC4669722, “Antitumour potential of BPT: a dual inhibitor of cdk4 and tubulin polymerization” (Cell Death & Disease, 2015)
Where two headings read alike, the source gives them in different places.

What was measured:
IGF-1 R = IGF-1 R (Homo sapiens, UniProt P08069); test: Kinase profiling (Millipore), IGF-1 R; type: biochemical
Protocol: (§1) The in vitro kinase assays for testing against Cdk4-cyclin D1, Cdk2-cyclin A, Cdk1-cyclin B1 and Cdk9-cyclin T1 were performed in-house. The methodology and results have been reported previously.[20], [30], [31], [32], [45] The kinase profiling for 58 representative kinases was carrried out commercially at Millipore Bioscience Division, Livingston, UK.

NCI-H460 tumours = test: NCI-H460 xenograft efficacy in SCID mice; type: in vivo; details: 100 mpk intraperitoneal, 9 days
Protocol: A group of 65 SCID (SCID strain-CBySmn.CB17-Prkdc^scid/J; The Jackson Laboratory; Stock no. 001803) female mice weighing 15–24 g and 6–8 weeks old were used. Human non-small-cell lung carcinoma, NCI-H460 (ATCC; cat. no. HTB-177) cells grown in RPMI-1640 medium supplemented with 10% FBS (Sigma-Aldrich). The cultured cells were injected subcutaneously into the dorsal side of SCID mice at a tune of 5.3 × 10^6 cells in 0.2 ml of suspension. When the tumour growth reached about 4–6 mm in diameter (about 6 days), the animals were randomly divided into eight groups, each containing 6 or 7 mice. The treatments were continued for 9 consecutive days intraperitoneally. Flavopiridol (2.5 mpk) was used as a positive control in this study. Tumour size was recorded at 2–5 day intervals. Tumour weight (mg) was estimated according to the formula for a prolate ellipsoid: (length (mm) × width (mm)^2) × 0.5) assuming specific gravity to be one and π to be 3. Tumour growth in compound treated animals is calculated as T/C (treated/control) × 100% and growth inhibition percent (% GI) was (100−% T/C).[48], [49], [50]

MEK1 = MEK1 (Homo sapiens, UniProt Q02750); test: Kinase profiling (Millipore), MEK1; type: biochemical
Sequence of MEK1 (Q02750 whole entry): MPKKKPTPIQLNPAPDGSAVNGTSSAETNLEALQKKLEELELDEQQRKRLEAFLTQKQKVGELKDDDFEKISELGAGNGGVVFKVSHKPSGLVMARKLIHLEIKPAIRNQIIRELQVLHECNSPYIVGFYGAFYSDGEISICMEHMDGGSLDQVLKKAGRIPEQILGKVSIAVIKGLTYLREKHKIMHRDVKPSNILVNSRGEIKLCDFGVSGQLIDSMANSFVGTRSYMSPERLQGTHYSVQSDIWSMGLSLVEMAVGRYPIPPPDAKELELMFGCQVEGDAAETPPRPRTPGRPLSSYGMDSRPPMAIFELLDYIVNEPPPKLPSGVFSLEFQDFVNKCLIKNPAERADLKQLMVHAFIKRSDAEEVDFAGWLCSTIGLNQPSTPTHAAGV
Protocol: as §1

tubulin = test: Cell-free tubulin polymerization assay in vitro; type: biochemical; details: for Vmax of tubulin polymerization: control 19 mOD/min
Protocol: The purified tubulin was obtained commercially (Cytoskeleton Inc., Denver, CO, USA) and the polymerization assays were carried out according to the method described previously.[36] […] The resulting polymerization curves are representative of the three phases of microtubule polymerization, namely nucleation, growth and steady-state equilibrium. Paclitaxel and nocodazole were used in the assay as a known enhancer and inhibitor of tubulin polymerization, respectively. The ability of BPT to inhibit tubulin polymerization in vitro was determined according to the manufacturer's instructions. Briefly, tubulin protein (3 mg/ml) was polymerized in GTP buffer (80 mM PIPES, pH 6.9, 2 mM MgCl2, 0.5 mM EGTA, 10.2% glycerol and 1 mM GTP) in the presence of a range of BPT concentrations at 37 °C in a temperature-regulated Biotech spectrophotometer (Potton, Bedfordshire, UK). The absorbance (at 340 nm) kinetics of 61 cycles for each sample was studied and the readings were recorded at an interval of 1 min.

[1] = test system: BNL CL2 (mouse embryonic normal hepatic cells); test: Flow cytometric cell cycle analysis, BNL CL2; type: cell-based; details: BNL CL2, 48 h, IC50 and IC70 concentrations
Protocol: The untreated (control) and treated (with test compounds) cells were harvested by trypsinization, washed once with PBS and then fixed in 70% chilled (−20 °C) ethanol for minimum 1 h. After the fixation step, cells were centrifuged for 5 min at 3000 × g at room temperature, and the pellet was suspended in PBS containing 50 μg/ml propidium iodide (Sigma-Aldrich, Dorset, UK; cat. no. P-4170) and 0.5 mg/ml DNase-free ribonuclease (Sigma-Aldrich; cat. no. R-5503). The cells were stained for 1 h in the dark at 4 °C. Cell cycle analysis was performed on the Beckman Coulter (Epics Altra) fluorescence-activated cell sorter (Beckman Coulter UK Ltd, Buckinghamshire, UK). To gate all the events that represent single cells, and not cell doublets or cell clumps, the following analyses were performed on the samples. Cytograms of propidium iodide fluorescence peak signal versus integrated fluorescence or the linear signal were plotted. All data points on the straight line were isolated in a single gate and the gated data was further used for plotting a histogram that represents a complete cell cycle. The total number of events was not allowed to exceed 200 events per s. Data acquisition was stopped after a minimum of 10 000 events had been collected.

[2] = test system: MiaPaCa (pancreatic; p53His273mut, pRb+); test: Cell proliferation (MTT) assay, MiaPaCa; type: cell-based; details: Homo sapiens, MIA PaCa-2, 48 h, read-out: IC50 cell growth inhibition, MiaPaCa
Protocol: (§2) All 10 human cancer cell lines were maintained at 37 °C in 5% CO2 in RPMI-1640 medium, supplemented with 10% foetal calf serum and 100 μg/ml normocin. The 10 cancer cell lines used for screening were all obtained from ATCC (Manassas, VA, USA); they were the NSCLC (a form of cancer that is resistant to chemotherapy) lines: NCI-H460 (pRb^+, p53^+), A549 (pRb^+, p53^+), Calu-1 (pRb^+, p53-null), NCI-H1299 (pRb^+, p53-null), NCI-H358 (pRb-null, p53-null); the colon cancer line LS174T (pRb^+, p53^+); the prostate cancer line PC-3 (pRb^+, p53-null); the pancreatic cancer line MiaPaca (pRb^+, p53-mutant). The genotypes within brackets indicate the status of the tumour suppressor proteins pRb and p53. The mouse embryonic normal hepatic cell line (BNL CL2) and its SV40 large T-antigen-transformed counterpart cell line (BNL SV A.8) were also purchased from ATCC. The large T-antigen inactivates the tumour suppressor proteins p53 and pRb. The detailed procedure of cell proliferation (MTT) assay and IC50 determination was described previously.[32]

[3] = test system: BNL SV A.8 (mouse hepatic; SV40-mediated transformed cells); test: Cell proliferation (MTT) assay, BNL SV A.8; type: cell-based
Protocol: as §2

[4] = Body weight measurements in xenograft models; type: in vivo, SCID mice
Protocol: The body weights of animals in different treatment and control groups were monitored by taking the measurements daily during the treatment schedule. By considering the body weight at the start of the treatment as 100%, the percent weight loss was calculated on subsequent days of treatments.

Cdk6-cyclin D1 = Cdk6-cyclin D1 (Homo sapiens, UniProt Q00534); test: Kinase profiling (Millipore), Cdk6-cyclin D1; type: biochemical
Sequence of Cdk6-cyclin D1 (P24385 whole entry): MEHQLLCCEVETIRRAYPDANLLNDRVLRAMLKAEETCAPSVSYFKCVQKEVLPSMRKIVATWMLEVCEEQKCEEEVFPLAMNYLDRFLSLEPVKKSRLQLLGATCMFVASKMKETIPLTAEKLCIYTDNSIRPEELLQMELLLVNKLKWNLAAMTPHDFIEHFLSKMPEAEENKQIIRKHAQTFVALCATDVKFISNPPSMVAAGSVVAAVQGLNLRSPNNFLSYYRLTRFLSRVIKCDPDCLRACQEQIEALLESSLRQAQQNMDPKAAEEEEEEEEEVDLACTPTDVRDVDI
Sequence of Cdk6-cyclin D1 (Q00534 whole entry): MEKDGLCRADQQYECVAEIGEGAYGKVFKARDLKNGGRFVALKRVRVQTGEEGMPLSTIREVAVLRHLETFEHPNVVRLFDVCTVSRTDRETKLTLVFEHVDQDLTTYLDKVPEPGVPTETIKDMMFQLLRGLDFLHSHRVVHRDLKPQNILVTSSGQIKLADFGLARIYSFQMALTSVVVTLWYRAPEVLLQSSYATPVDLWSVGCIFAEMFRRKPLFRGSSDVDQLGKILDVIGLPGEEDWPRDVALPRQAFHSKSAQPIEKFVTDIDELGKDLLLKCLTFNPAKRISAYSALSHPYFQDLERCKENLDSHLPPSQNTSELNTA
Protocol: as §1

[5] = BNL SV A.8, concentration used in long-term survival assay (Fig. S3)

Sequence of IGF-1 R (P08069 31-1367): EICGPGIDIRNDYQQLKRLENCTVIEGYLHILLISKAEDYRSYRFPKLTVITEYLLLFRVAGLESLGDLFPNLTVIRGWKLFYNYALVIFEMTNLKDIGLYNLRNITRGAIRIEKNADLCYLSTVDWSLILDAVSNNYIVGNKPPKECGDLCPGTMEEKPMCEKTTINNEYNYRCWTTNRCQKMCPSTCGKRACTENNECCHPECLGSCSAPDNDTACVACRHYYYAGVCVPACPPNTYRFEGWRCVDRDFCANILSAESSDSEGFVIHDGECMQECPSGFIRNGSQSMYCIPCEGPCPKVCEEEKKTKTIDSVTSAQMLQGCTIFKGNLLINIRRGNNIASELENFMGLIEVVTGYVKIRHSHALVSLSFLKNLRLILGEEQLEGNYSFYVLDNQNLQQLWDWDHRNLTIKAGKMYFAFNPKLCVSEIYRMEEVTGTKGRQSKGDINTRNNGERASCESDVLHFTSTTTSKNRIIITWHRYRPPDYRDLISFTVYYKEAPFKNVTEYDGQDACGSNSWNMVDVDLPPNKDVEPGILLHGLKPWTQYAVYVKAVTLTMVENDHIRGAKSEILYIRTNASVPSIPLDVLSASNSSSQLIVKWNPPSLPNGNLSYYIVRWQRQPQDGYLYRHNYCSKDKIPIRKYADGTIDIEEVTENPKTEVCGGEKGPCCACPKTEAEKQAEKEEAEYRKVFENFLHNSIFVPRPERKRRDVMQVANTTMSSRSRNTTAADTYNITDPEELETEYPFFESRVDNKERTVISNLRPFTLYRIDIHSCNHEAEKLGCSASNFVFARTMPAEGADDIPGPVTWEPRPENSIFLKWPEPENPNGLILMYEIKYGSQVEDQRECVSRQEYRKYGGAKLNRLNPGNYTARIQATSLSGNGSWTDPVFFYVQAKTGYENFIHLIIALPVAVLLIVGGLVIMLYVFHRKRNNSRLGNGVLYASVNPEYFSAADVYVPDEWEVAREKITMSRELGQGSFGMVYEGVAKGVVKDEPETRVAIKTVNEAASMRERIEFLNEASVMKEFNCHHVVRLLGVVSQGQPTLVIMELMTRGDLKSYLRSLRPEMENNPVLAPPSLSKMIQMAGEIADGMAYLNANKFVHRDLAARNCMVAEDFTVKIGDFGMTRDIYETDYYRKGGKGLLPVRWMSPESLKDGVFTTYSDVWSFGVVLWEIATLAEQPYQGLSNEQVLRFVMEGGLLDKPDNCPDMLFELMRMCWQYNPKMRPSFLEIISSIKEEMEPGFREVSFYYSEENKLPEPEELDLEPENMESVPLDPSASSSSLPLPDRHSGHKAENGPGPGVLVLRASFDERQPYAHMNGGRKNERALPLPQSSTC

**Q.** For `O=C(c1ccccc1-c1ccccc1)N1CCc2c([nH]c3ccccc23)C1` [BPT, 2-(biphenyl-2-carbonyl)-2,3,4,9-tetrahydro-1H-pyrido[3,4-b]indole], which IC50 (IGF-1 R) is on record?
**A.** Its IC50 is greater than 10000 nM.

**Q.** And the antitumour efficacy (NCI-H460 tumours)?
**A.** The antitumour efficacy was “high efficacy”.

**Q.** What about the IC50 (MEK1) of the same compound?
**A.** The IC50 was greater than 10000 nM.

**Q.** What about the “Vmax of tubulin polymerization” value (tubulin; 0.5 μM) of the same compound?
**A.** The value was 12.5 mOD/min.

**Q.** And the “Vmax of tubulin polymerization” value (tubulin; 1 μM)?
**A.** Its value is 9.2 mOD/min.

**Q.** What about the “Vmax of tubulin polymerization” value (tubulin; 2.5 μM) of the same compound?
**A.** The value was 3 mOD/min.

**Q.** What about the “Vmax of tubulin polymerization” value (tubulin; 5 μM) of the same compound?
**A.** The value was 0.5 mOD/min.

**Q.** And the “reduction in final polymer mass” value (tubulin; 0.5-5 μM)?
**A.** The value was “up to 80%”.

**Q.** What about the “cells detected in the sub-G1 phase” value [1] of the same compound?
**A.** Its value is less than 10%.

**Q.** And the “normal cells in the G2/M phase” value [1]?
**A.** Its value is “More than 50%”.

**Q.** What about the IC50 [2] of the same compound?
**A.** Its IC50 is 800 nM.

**Q.** What about the IC30 [3, 5] of the same compound?
**A.** The IC30 was 400 nM.

**Q.** And the IC70 [3, 5]?
**A.** Its IC70 is 900 nM.

**Q.** What about the IC50 ([3]; Mus musculus, 48 h, MTT, read-out: IC50 cell growth inhibition, BNL SV A.8) of the same compound?
**A.** Its IC50 is 750 nM.

**Q.** And the IC20 ([3]; Mus musculus, BNL SV A.8, concentration used in long-term survival assay (Fig. S3))?
**A.** The IC20 was 250 nM.

**Q.** And the IC50 ([3]; Mus musculus, BNL SV A.8, concentration used in long-term survival assay (Fig. S3), read-out: IC50)?
**A.** The IC50 was 600 nM.

**Q.** And the “weight loss of treated animals” value ([4]; SCID mice-HCT116 tumour model, 100 mpk, of starting weight)?
**A.** Its value is less than 10%.

**Q.** And the “weight loss of treated animals” value ([4]; both tumour models (HCT-116 and NCI-H460))?
**A.** Its value is “statistically insignificant weight loss”.

**Q.** And the IC50 (Cdk6-cyclin D1)?
**A.** The IC50 was greater than 10000 nM.
